# PubChem BioAssay (NCI)
#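 Method: 48-hour compound exposure of cells in 96-well plates, five concentrations, linear interpolation of endpoints. At the GI50, growth is halved. TGI denotes the concentration required for complete inhibition of growth.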
# What was measured:
# Assay in all cases: DTP human tumour cell line panel, 48 h
# [1] = test system: OVCAR-3 ovarian
# [2] = test system: MOLT-4 leukemia
# [3] = test system: ACHN renal
# [4] = test system: M14 melanoma
# [5] = test system: LOX IMVI melanoma
# [6] = test system: MCF7 breast
# [7] = test system: HCT-116 colon
# [8] = test system: TK-10 renal
# [9] = test system: RPMI-8226 leukemia
# [10] = test system: SK-MEL-2 melanoma
# [11] = test system: SN12K1 renal
# [12] = test system: SNB-78 CNS
# [13] = test system: OVCAR-4 ovarian
# [14] = test system: M19-MEL melanoma
SMILES,GI50 [1] [µM],TGI [1] [µM],TGI [2] [µM],TGI [3] [µM],GI50 [4] [µM],TGI [4] [µM],GI50 [5] [µM],TGI [5] [µM],GI50 [6] [µM],TGI [6] [µM],GI50 [7] [µM],TGI [7] [µM],TGI [8] [µM],GI50 [9] [µM],TGI [9] [µM],TGI [10] [µM],TGI [11] [µM],TGI [12] [µM],TGI [13] [µM],TGI [14] [µM]
COc1cc2cc(C(=O)N3C[C@H](CCl)c4c3cc(N)c3ccccc43)[nH]c2c(OC)c1OC,0.005,0.936,0.246,< 0.005,0.005,0.0137,0.005,0.0581,0.005,13,0.005,0.6,10.3,0.005,> 50,–,–,–,–,–
CCCCOc1ccc(OCCCCCCCCCC[N+](C)(C)C)cc1,–,7.89,3.27,–,–,–,–,3.81,–,14.8,–,9.31,–,–,2.33,5,8.54,9.78,14.8,–
CN(C)CCNC(=O)c1cc(Cl)cc2ccc(-c3ccccc3)nc12,–,15.8,2.92,–,–,–,–,6.7,–,14.5,–,10.7,–,–,5.32,17.1,5.81,24.9,13.7,11.4
CSc1cc(=O)n2c3ccccc3c3ccnc1c32,–,> 100,> 100,–,–,–,–,> 100,–,> 100,–,> 100,–,–,> 100,> 100,> 100,> 100,> 100,> 100
O=S(=O)(O)c1ccc(N=Nc2ccc(N=Nc3ccc(/C=C/c4ccc(N=[N+]([O-])c5ccc(/C=C/c6ccc(N=Nc7ccc(N=Nc8ccc(S(=O)(=O)O)cc8)cc7)cc6S(=O)(=O)O)c(S(=O)(=O)O)c5)cc4S(=O)(=O)O)c(S(=O)(=O)O)c3)cc2)cc1,–,> 100,> 100,–,–,–,–,> 100,–,> 100,–,> 100,–,–,> 100,> 100,> 100,–,> 100,> 100
Cc1cc(C)nc(NS(=O)(=O)c2ccc(Nc3c4ccccc4nc4c(C(=O)N5CCN(CCOS(C)(=O)=O)CC5)cccc34)cc2)n1,–,> 100,> 100,> 100,–,> 100,–,–,–,–,–,> 100,> 100,–,> 100,> 100,–,> 100,> 100,> 100
NCCCCNCCCNC(=O)c1nc(-c2nc(CCN)sc2Cl)sc1Cl,–,> 100,> 100,> 100,–,> 100,–,–,–,–,–,> 100,> 100,–,> 100,–,–,> 100,71.8,> 100
